Values after ≈ are worked out from the molar mass of the structure shown. Where a SMILES comes first, the peptide text is derived from it.
`CCOC(=O)c1cccnc1` showed a solubility (25 °C) of 370 mM (≈ 56000 µg/mL).
Compound `O=NN1CCCC1=O` has a solubility (25 °C) of 1130 mM (≈ 129000 µg/mL).
With `CCSS(=O)CC` (stereo not given) the solubility was 796 mM (≈ 110000 µg/mL).
`CCC(CC)(CC(=O)O)C(=O)O` showed a solubility (25 °C) of 160 mM (≈ 27900 µg/mL).
In the case of `Cc1cc(N)n(-c2ccccc2)n1`, the solubility is reported as 115 mM (≈ 20000 µg/mL).
Work on `CCC(C(=O)O)C(CC)C(=O)O` (stereo not given) yielded a solubility (23 °C) of 69.5 mM (≈ 12100 µg/mL).
For `COc1ccc(C(=O)CCC(=O)O)cc1`, the solubility (25 °C) was 86.5 mM (≈ 18000 µg/mL).
With `Cc1cccc(Cl)c1O` the solubility (25 °C) was 168 mM (≈ 24000 µg/mL).
In the case of `CCCOC(=O)CO[N+](=O)[O-]`, the solubility (30 °C) is reported as 11 mM (≈ 1800 µg/mL).
`NC(=S)SCC(=O)O` showed a solubility of 179 mM (≈ 27000 µg/mL).
With `CCCCOP(=O)(CCCC)OCCCC` the solubility (25 °C) was 2 mM (≈ 500 µg/mL).
With `CC(=O)NCCNC(C)=O` the solubility (25 °C) was 4740 mM (≈ 683000 µg/mL).
`NC(N)=N/C(N)=N/c1cccc2ccccc12` showed a solubility (20 °C) of 4.84 mM (≈ 1100 µg/mL).
In the case of `Cc1csc(=S)n1CC(=O)O`, the solubility (20 °C) is reported as 10.9 mM (≈ 2060 µg/mL).
With `O=C(O)Cc1cc(O)ccc1O` the solubility (25 °C) was 5050 mM (≈ 850000 µg/mL).
In the case of `CSc1ncccn1`, the solubility (25 °C) is reported as 396 mM (≈ 50000 µg/mL).
For `CC(C)(NC(=O)c1ccccc1)C(N)=O`, the solubility was 24.2 mM (≈ 5000 µg/mL).
`CCCCOC(=O)CCOCC` gave a solubility (25 °C) of 23 mM (≈ 4000 µg/mL).
`C=CS(=O)(=O)Nc1ccccc1` gave a solubility (20 °C) of 31.7 mM (≈ 5800 µg/mL).
In the case of `Cn1c(C(N)=O)c(C(N)=O)c2ccccc21`, the solubility is reported as 15.2 mM (≈ 3300 µg/mL).
`COP(=S)(OC)SSP(=S)(OC)OC` gave a solubility (25 °C) of 0.04 mM (≈ 12.6 µg/mL).
In the case of `CCCOC(=O)c1ccc(O)c(I)c1`, the solubility (30 °C) is reported as 0.206 mM (≈ 63 µg/mL).
Work on `CC(C)C1CCC(=NO)C(=NO)C1` (stereo not given) yielded a solubility (25 °C) of 4.07 mM (≈ 750 µg/mL).
With `O=C(O)c1ccc([N+](=O)[O-])c(C(=O)O)c1` the solubility (25 °C) was 45.8 mM (≈ 9670 µg/mL).
`O=c1ccccc(Br)c1O` showed a solubility (25 °C) of 3.67 mM (≈ 738 µg/mL).
With `C/C=C\CC1(C/C=C/C)C(=O)NC(=O)NC1=O` the solubility (20 °C) was 6.35 mM (≈ 1500 µg/mL).
`O=C(Nc1ccccc1)C(Cl)Cl` gave a solubility (20 °C) of 0.441 mM (≈ 90 µg/mL).
With `COc1ncc2nccnc2n1` the solubility (20 °C) was 77.1 mM (≈ 12500 µg/mL).
In the case of `C=CCCN=C=S`, the solubility (20 °C) is reported as 4.06 mM (≈ 460 µg/mL).
Work on `NNC(=O)[C@H](O)[C@@H](O)[C@H](O)[C@H](O)CO` yielded a solubility of 317 mM (≈ 66700 µg/mL).
In the case of `OCc1cccc(O)c1`, the solubility (20 °C) is reported as 540 mM (≈ 67000 µg/mL).
In the case of `Oc1ccccc1Oc1ccccc1`, the solubility is reported as 0.591 mM (≈ 110 µg/mL).
Work on `CCC(C)(O)C(O)c1ccccc1` (stereo not given) yielded a solubility (20 °C) of 18.9 mM (≈ 3400 µg/mL).
Compound `Brc1ccc2c(c1)Sc1ccccc1N2` has a solubility (20 °C) of 0.000773 mM (≈ 0.215 µg/mL).
For `O=c1cc(Br)c2ccccc2o1`, the solubility was 22.2 mM (≈ 5000 µg/mL).
`CC(C)C(=O)Oc1ccc([N+](=O)[O-])cc1` gave a solubility (23 °C) of 0.11 mM (≈ 23 µg/mL).
Compound `Cn1cc(I)ccc1=O` has a solubility of 979 mM (≈ 230000 µg/mL).
With `CCC(CC)(CC)NC(N)=O` the solubility (20 °C) was 15.2 mM (≈ 2400 µg/mL).
Compound `NC1=NC2=NC=NC2C(C(F)(F)F)=N1` (stereo not given) has a solubility (20 °C) of 0.733 mM (≈ 149 µg/mL).
Work on `COc1ncnc2nccnc12` yielded a solubility (20 °C) of 77.1 mM (≈ 12500 µg/mL).
For `CCOC(=O)CCc1ccccc1`, the solubility (25 °C) was 1.23 mM (≈ 220 µg/mL).
For `NC(=O)C[C@H](NC(=O)CCl)C(=O)O`, the solubility was 479 mM (≈ 100000 µg/mL).
Work on `Nc1cc([N+](=O)[O-])ccc1I` yielded a solubility (25 °C) of 0.0379 mM (≈ 10 µg/mL).
In the case of `NC(=O)OC(CCl)CCl`, the solubility (25 °C) is reported as 43.6 mM (≈ 7500 µg/mL).
`CCOC(=O)N(CC)CC` showed a solubility of 86.1 mM (≈ 12500 µg/mL).
For `CCCCCNC(=O)C(C)O` (stereo not given), the solubility (25 °C) was 414 mM (≈ 66000 µg/mL).
For `O=CNCC(=O)O`, the solubility (25 °C) was 1850 mM (≈ 191000 µg/mL).
`CC(C)[C@H](NC(=O)CN)C(=O)O` (H-Gly-Val-OH) showed a solubility of 2870 mM (≈ 500000 µg/mL).
In the case of `CCC/C(=C\C(=O)O)C(=O)O`, the solubility (25 °C) is reported as 70.2 mM (≈ 11100 µg/mL).
`O=C(O)CNC(=O)CNS(=O)(=O)c1ccc2ccccc2c1` showed a solubility (20 °C) of 2.02 mM (≈ 650 µg/mL).
`CNC(=O)N(C)C(=O)CC#N` gave a solubility (25 °C) of 1480 mM (≈ 230000 µg/mL).
With `CCOc1ccc(N(C(C)=O)C(C)=O)cc1` the solubility (25 °C) was 11.3 mM (≈ 2500 µg/mL).
For `COc1ccc(OC)c([N+](=O)[O-])c1`, the solubility was 0.764 mM (≈ 140 µg/mL).
`O=C(O)CCC(=O)c1ccc2ccccc2c1` gave a solubility (25 °C) of 0.14 mM (≈ 32 µg/mL).
For `O=C(NCCc1c[nH]cn1)c1ccccc1`, the solubility was 232 mM (≈ 50000 µg/mL).
In the case of `NC(=O)NCl`, the solubility is reported as 2120 mM (≈ 200000 µg/mL).
For `CCC(NC=O)C(=O)O` (stereo not given), the solubility (25 °C) was 256 mM (≈ 33600 µg/mL).
With `Oc1ccc(Sc2ccccc2)cc1` the solubility was 1.68 mM (≈ 340 µg/mL).
In the case of `CCCCCc1ccc(O)cc1O`, the solubility is reported as 11.1 mM (≈ 2000 µg/mL).
With `Cc1cc(O)c(C(=O)O)cc1Cl` the solubility (21 °C) was 0.75 mM (≈ 140 µg/mL).
Compound `O=C1CCCCCCCCCN1` has a solubility (22 °C) of 13 mM (≈ 2200 µg/mL).
`CC(=O)Nc1ccc(Cl)cc1C` gave a solubility (20 °C) of 4.9 mM (≈ 900 µg/mL).
`S=C=NCCc1ccccc1` showed a solubility (20 °C) of 0.674 mM (≈ 110 µg/mL).
For `CCOc1nsc(N)n1`, the solubility (20 °C) was 223 mM (≈ 32400 µg/mL).
`O=C(O)CNC(=S)SCC(=O)O` gave a solubility (25 °C) of 50 mM (≈ 10500 µg/mL).
With `O=C(NC1CCCCC1)c1cccnc1` the solubility (25 °C) was 4.8 mM (≈ 980 µg/mL).
For `Nc1ccncc1`, the solubility (20 °C) was 885 mM (≈ 83300 µg/mL).
For `CCOC(C)CCO` (stereo not given), the solubility (20 °C) was 423 mM (≈ 50000 µg/mL).
`CCOc1ccc(NC(C)=O)c(C)c1` gave a solubility (25 °C) of 14.5 mM (≈ 2800 µg/mL).
`CC(C)C(Br)C(=O)N[C@@H](C)C(=O)O` (mixture of isomers) gave a solubility of 329 mM (≈ 83000 µg/mL).
For `Oc1cccc2ccnnc12`, the solubility (20 °C) was 3.9 mM (≈ 570 µg/mL).
In the case of `CC1CCC(=NO)C(=NO)C1` (stereo not given), the solubility (25 °C) is reported as 21.8 mM (≈ 3400 µg/mL).
Compound `C[C@@H](N)C(C)(C)C` has a solubility (25 °C) of 9690 mM (≈ 980000 µg/mL).
Work on `O=C(c1cc([N+](=O)[O-])cc([N+](=O)[O-])c1)N(O)c1ccccc1` yielded a solubility of 0.231 mM (≈ 70 µg/mL).
`CCOP(=O)(Cc1ccc(-c2nc3ccccc3s2)cc1)OCC` showed a solubility (22 °C) of 0.0996 mM (≈ 36 µg/mL).
In the case of `CCN(CC)CCSCCN(CC)CC`, the solubility is reported as 4.3 mM (≈ 1000 µg/mL).
Work on `CCC(O)C(Cl)(Cl)Cl` (stereo not given) yielded a solubility (20 °C) of 113 mM (≈ 20000 µg/mL).
With `O=C(S)CCCCCCCCC(=O)S` the solubility (26 °C) was 0.853 mM (≈ 200 µg/mL).
Compound `c1cn[nH]c1` has a solubility (25 °C) of 285 mM (≈ 19400 µg/mL).
In the case of `Cc1cc(Cl)cc(Cl)c1O`, the solubility (25 °C) is reported as 9.04 mM (≈ 1600 µg/mL).
For `CCc1cccc(C)n1`, the solubility (30 °C) was 150 mM (≈ 18200 µg/mL).
Work on `O=C(OCCO)c1ccccc1O` yielded a solubility (20 °C) of 69.7 mM (≈ 12700 µg/mL).
`CSCCC(C(=O)O)N(CCC#N)CCC#N` (racemic) gave a solubility (26 °C) of 47 mM (≈ 12000 µg/mL).
For `CC(C#N)(CCC(=O)O)/N=N/C(C)(C#N)CCC(=O)O` (stereo not given), the solubility (20 °C) was 9.81 mM (≈ 2750 µg/mL).
Work on `CCSS(=O)(=O)CC` yielded a solubility of 77.8 mM (≈ 12000 µg/mL).

Source: the OPERA property sets (Mansouri et al. 2018)
